Where two headings read alike, the source gives them in different places.
Biological target: NMDA receptor (NR1 + NR2 subunits) (Rattus norvegicus, UniProt P35439+Q00960)
Assay: Two electrode voltage clamp recording from Xenopus laevis oocytes (pH dependence of NMDA antagonism)
Type: cell-based
Method: cRNA was synthesized from linearized template cDNA for rat glutamate receptor subunits according to manufacturer specifications (Ambion). Quality of synthesized cRNA was assessed by gel electrophoresis, and quantity was estimated by spectroscopy and gel electrophoresis. Stage V and VI oocytes were surgically removed from the ovaries of large, well-fed and healthy Xenopus laevis anesthetized with 3-amino-benzoic acid ethyl ester (3 gm/l) as previously described. Clusters of isolated oocytes were incubated with 292 U/ml Worthington (Freehold, N.J.) type IV collagenase or 1.3 mg/ml collagenase (Life Technologies, Gaithersburg, Md.; 17018-029) for 2 hr in Ca^2+-free solution comprised of (in mM) 115 NaCl, 2.5 KCl, and 10 HEPES, pH 7.5, with slow agitation to remove the follicular cell layer. Oocytes were then washed extensively in the same solution supplemented with 1.8 mM CaCl2 and maintained in Barth's solution comprised of (in mM): 88 NaCl, 1 KCl, 2.4 NaHCO3, 10 HEPES, 0.82 MgSO4, 0.33 Ca(NO3)2, and 0.91 CaCl2 and supplemented with 100 μg/ml gentamycin, 10 μg/ml streptomycin, and 10 μg/ml penicillin. Oocytes were manually defolliculated and injected within 24 hrs of isolation with 3-5 ng of NR1 subunit cRNA and 7-10 ng of NR2 cRNA subunit in a 50 nl volume, or 5-10 ng of AMPA or kainate receptor cRNAs in a 50 nl volume, and incubated in Barth's solution at 18° C. for 1-7 d. Glass injection pipettes had tip sizes ranging from 10-20 microns, and were backfilled with mineral oil.
Two electrode voltage-clamp recordings were made 2-7 days post-injection as previously described. Oocytes were placed in a dual-track plexiglass recording chamber with a single perfusion line that splits in a Y-configuration to perfuse two oocytes. Dual recordings were made at room temperature (23° C.) using two Warner OC725B two-electrode voltage clamp amplifiers, arranged as recommended by the manufacturer. Glass microelectrodes (1-10 Megaohms) were filled with 300 mM KCl (voltage electrode) or 3 M KCl (current electrode). The bath clamps communicated across silver chloride wires placed into each side of the recording chamber, both of which were assumed to be at a reference potential of 0 mV. Oocytes were perfused with a solution comprised of (in mM) 90 NaCl, 1 KCl, 10 HEPES, and 0.5 BaCl2; pH was adjusted by addition of 1-3 M NaOH of HCl. Oocytes were recorded under voltage clamp at −40 mV. Final concentrations for control application of glutamate (50 μM) plus glycine (30 μM) were achieved by adding appropriate volumes from 100 and 30 mM stock solutions, respectively. In addition, 10 μM final EDTA was obtained by adding a 1:1000 dilution of 10 mM EDTA, in order to chelate contaminant divalent ions such as Zn^2+. Concentration-response curves for experimental compounds were obtained by applying in successive fashion maximal glutamate/glycine, followed by glutamate/glycine plus variable concentrations of experimental compounds. Dose response curves consisting of 4 to 8 concentrations were obtained in this manner. The baseline leak current at −40 mV was measured before and after recording, and the full recording linearly corrected for any change in leak current. Oocytes with glutamate-evoked responses smaller than 50 nA were not included in the analysis. The level of inhibition by applied experimental compounds was expressed as a percent of the initial glutamate response, and averaged together across oocytes from a single frog. Each experiment consisted of recordings from 3 to 10 oocytes obtained from a single frog. Results from 3-6 experiments were pooled, and the average percent responses at antagonist concentrations were fitted by the equation,
Percent Response=(100−minimum)/(1+([conc]/IC50)^nH)+minimum […]

[1] = pH 6.9, Table 19, read-out: IC50 at pH 6.9
[2] = pH 7.6, Table 19, read-out: IC50 at pH 7.6
[3] = pH 6.9, Table 20, read-out: IC50 at pH 6.9
[4] = pH 7.6, Table 20, read-out: IC50 at pH 7.6
[5] = pH 6.9, Table 21, read-out: IC50 at pH 6.9
[6] = pH 7.6, Table 21, read-out: IC50 at pH 7.6

Chain of NMDA receptor (NR1 + NR2 subunits) (Q00960 27-1482, other chains not shown): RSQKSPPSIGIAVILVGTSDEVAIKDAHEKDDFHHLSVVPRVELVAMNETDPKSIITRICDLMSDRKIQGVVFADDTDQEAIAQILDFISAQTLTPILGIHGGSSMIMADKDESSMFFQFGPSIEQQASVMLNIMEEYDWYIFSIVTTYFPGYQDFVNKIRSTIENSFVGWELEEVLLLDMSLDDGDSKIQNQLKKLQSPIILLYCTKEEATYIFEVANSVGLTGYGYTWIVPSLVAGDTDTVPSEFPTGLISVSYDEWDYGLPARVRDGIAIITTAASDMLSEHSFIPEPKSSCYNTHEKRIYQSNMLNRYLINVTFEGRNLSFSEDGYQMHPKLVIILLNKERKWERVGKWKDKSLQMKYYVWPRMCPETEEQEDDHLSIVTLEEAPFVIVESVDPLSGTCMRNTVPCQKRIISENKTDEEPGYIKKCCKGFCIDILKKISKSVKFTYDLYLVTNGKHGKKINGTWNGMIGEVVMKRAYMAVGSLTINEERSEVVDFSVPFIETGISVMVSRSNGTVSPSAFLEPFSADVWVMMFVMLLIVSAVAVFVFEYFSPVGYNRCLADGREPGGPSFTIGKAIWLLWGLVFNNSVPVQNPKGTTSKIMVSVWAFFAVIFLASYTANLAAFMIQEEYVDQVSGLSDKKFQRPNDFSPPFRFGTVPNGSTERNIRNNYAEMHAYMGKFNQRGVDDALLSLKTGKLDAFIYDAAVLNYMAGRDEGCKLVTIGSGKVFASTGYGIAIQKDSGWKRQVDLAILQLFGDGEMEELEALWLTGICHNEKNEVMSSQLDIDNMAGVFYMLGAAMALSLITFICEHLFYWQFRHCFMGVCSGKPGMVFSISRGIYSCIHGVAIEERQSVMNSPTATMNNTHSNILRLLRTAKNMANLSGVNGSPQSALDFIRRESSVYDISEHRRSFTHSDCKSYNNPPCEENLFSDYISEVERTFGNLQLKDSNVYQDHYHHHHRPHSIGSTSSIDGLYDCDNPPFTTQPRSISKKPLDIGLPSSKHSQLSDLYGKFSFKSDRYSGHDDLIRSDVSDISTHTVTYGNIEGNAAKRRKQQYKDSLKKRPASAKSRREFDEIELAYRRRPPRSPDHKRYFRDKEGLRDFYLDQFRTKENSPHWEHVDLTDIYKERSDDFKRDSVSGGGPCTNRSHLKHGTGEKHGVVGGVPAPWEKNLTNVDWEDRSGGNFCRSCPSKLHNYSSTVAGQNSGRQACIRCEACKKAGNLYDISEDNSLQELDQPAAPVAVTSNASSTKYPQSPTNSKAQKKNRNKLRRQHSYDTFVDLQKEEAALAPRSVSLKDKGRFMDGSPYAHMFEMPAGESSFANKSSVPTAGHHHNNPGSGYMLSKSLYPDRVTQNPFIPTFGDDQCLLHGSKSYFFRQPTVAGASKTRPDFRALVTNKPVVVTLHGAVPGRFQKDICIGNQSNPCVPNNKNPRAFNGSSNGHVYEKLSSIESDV

Row | Structure (SMILES) | IC50 [1] | IC50 [2] | further results
1 | Oc1ccc(OCC(O)CN2CCN(c3ccc(C(F)(F)F)cc3)CC2)cc1 (centres unmarked) | 113 nM | 448 nM | 
2 | Oc1ccc(OC[C@H](O)CN2CCN(c3cccc(Cl)c3)CC2)cc1 | 257 nM | 4800 nM | 
3 | Oc1ccc(OCC(O)CN2CCN(c3cccc(C(F)(F)F)c3)CC2)cc1 (centres unmarked) | 386 nM | 3790 nM | 
4 | Oc1ccc(OCC(O)CNCCc2ccc(Cl)c(Cl)c2)cc1 (centres unmarked) | 197 nM | 501 nM | 
5 | CCCCN(CCc1ccc(Cl)c(Cl)c1)CC(O)COc1ccc(O)cc1 (centres unmarked) | 585 nM | 6500 nM | 
6 | Oc1ccc(OCC(O)CNCCc2ccc(Cl)c(Cl)c2)c(F)c1 (centres unmarked) | 116 nM | 330 nM | 
7 | Oc1ccc(OCC(O)CNCCc2ccc(Cl)c(Cl)c2)cc1F (centres unmarked) | 114 nM | 549 nM | 
8 | Oc1ccc(OC[C@H](O)CN2CCC(O)(c3ccccc3)CC2)cc1 | 191 nM | 298 nM | 
9 | NC(=O)Nc1ccc(OCCCN2CCN(c3ccc(F)c(F)c3)CC2)cc1 |  |  | IC50 [3]: 82 nM; IC50 [4]: 696 nM
10 | C=C(COc1ccc(NC(N)=O)cc1)CN1CCN(c2ccc(F)c(F)c2)CC1 |  |  | IC50 [3]: 557 nM; IC50 [4]: 10400 nM
11 | NC(=O)Nc1ccc(OCCCN2CCN(c3ccc(F)cc3)CC2)cc1 |  |  | IC50 [3]: 117 nM; IC50 [4]: 625 nM
12 | NC(=O)Nc1ccc(OC[C@H](O)CN2CCN(c3ccc(Cl)cc3)CC2)cc1 |  |  | IC50 [3]: 19 nM; IC50 [4]: 60 nM
13 | CCNC(=O)Nc1ccc(OCCCN2CCN(c3ccc(F)cc3)CC2)cc1 |  |  | IC50 [3]: 3030 nM; IC50 [4]: 15700 nM
14 | COC(=O)Nc1ccc(OCCCN2CCN(c3ccc(F)cc3)CC2)cc1 |  |  | IC50 [3]: 1540 nM; IC50 [4]: 16200 nM
15 | CS(=O)(=O)Nc1ccc(OCC(=O)NCCNc2ccc(Cl)c(Cl)c2)cc1 |  |  | IC50 [5]: 13 nM; IC50 [6]: 58 nM
16 | CS(=O)(=O)Nc1ccc(OCCNCCNc2ccc(Cl)c(Cl)c2)cc1 |  |  | IC50 [5]: 14 nM; IC50 [6]: 36 nM
17 | CS(=O)(=O)Nc1ccc(CCC(=O)N2CCN(c3ccc(Cl)c(Cl)c3)CC2)cc1 |  |  | IC50 [5]: 670 nM; IC50 [6]: 5330 nM
18 | CS(=O)(=O)Nc1ccc(CCC(=O)N2CCN(c3ccc(F)c(F)c3)CC2)cc1 |  |  | IC50 [5]: 2200 nM; IC50 [6]: 8400 nM
19 | CS(=O)(=O)Nc1ccc(CCCN2CCN(c3ccc(Cl)c(Cl)c3)CC2)cc1 |  |  | IC50 [5]: 230 nM; IC50 [6]: 2730 nM
20 | CS(=O)(=O)Nc1ccc(OCC(=O)N2CCN(c3ccc(Cl)c(Cl)c3)CC2)cc1 |  |  | IC50 [5]: 40 nM; IC50 [6]: 129 nM
21 | O=C(COc1ccc2[nH]c(=O)oc2c1)N1CCN(c2ccc(F)c(F)c2)CC1 |  |  | IC50 [5]: 307 nM; IC50 [6]: 467 nM
22 | O=C(COc1ccc2[nH]c(=O)oc2c1)N1CCN(c2ccc(Cl)cc2)CC1 |  |  | IC50 [5]: 189 nM; IC50 [6]: 243 nM

More lines, main results first:

Row | IC50 [1] | IC50 [2] | Structure (SMILES) | further results
23 | 6950 nM | 191000 nM | Oc1ccc(OCC(O)CN2CCN(c3ccc(-c4ccccc4)cc3)CC2)cc1 (centres unmarked) | 
24 | 529 nM | 3560 nM | Oc1ccc(OC[C@H](O)CN2CCN(c3ccc(F)cc3F)CC2)cc1 | 
25 | 541 nM | 1730 nM | Oc1ccc(OC[C@H](O)CN2CCN(c3ccccc3F)CC2)cc1 | 
26 | 978 nM | 4390 nM | Oc1ccc(OCC(O)CN2CCN(c3ccccc3Cl)CC2)cc1 (centres unmarked) | 
27 | 430 nM | 3930 nM | Cc1ccccc1N1CCN(C[C@@H](O)COc2ccc(O)cc2)CC1 | 
28 | 3210 nM | 8330 nM | N#Cc1ccccc1N1CCN(C[C@@H](O)COc2ccc(O)cc2)CC1 | 
29 | 217 nM | 476 nM | Oc1ccc(OCC(O)CN2CCN(c3ccccc3)CC2)cc1 (centres unmarked) | 
30 | 211 nM | 598 nM | Oc1ccc(OC[C@H](O)CN2CCN(c3cccc(F)c3)CC2)cc1 | 
31 | 341 nM | 1740 nM | Cc1cccc(N2CCN(C[C@@H](O)COc3ccc(O)cc3)CC2)c1 | 

From patent US20110160223A1, “NMDA Receptor Antagonists for the Treatment of Neuropsychiatric Disorders” (priority 2008, published 2011)
